Test results published in the supplement of paper PMC10307832.

Legend:
Assay in all cases: relative viability (nuclei count vs DMSO), 5 days (fraction); higher = more cells survive
PC-3 [JPC-3] = system: PC-3 [JPC-3]
In short: (§1)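 Relative viability equals treated-well nuclei counts divided by vehicle-well nuclei counts. Counts came from 4× images of lung cancer cell lines grown in 1536-well plates for 5 days after pin-tool dosing on the day after seeding. Dosing used one drug alone or a fixed anchor-drug dose plus five library-drug doses (not always all listed) in √10 steps, and values are medians of duplicate plates.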

CAL-12T = system: CAL-12T
In short: as §1

NCI-H2023 = system: NCI-H2023
In short: as §1

NCI-H661 = system: NCI-H661
In short: as §1

NCI-H2087 = system: NCI-H2087
In short: as §1

NCI-H1944 = system: NCI-H1944
In short: as §1

NCI-H650 = system: NCI-H650
In short: as §1

LCLC-97TM1 = system: LCLC-97TM1
In short: as §1

NCI-H1650 = system: NCI-H1650
In short: as §1

NCI-H460 = system: NCI-H460
In short: as §1

A-427 = system: A-427
In short: as §1

ABC-1 = system: ABC-1
In short: as §1

NCI-H727 = system: NCI-H727
In short: as §1

LC-2-ad = system: LC-2-ad
In short: as §1

H3255 = system: H3255
In short: as §1

NCI-H520 = system: NCI-H520
In short: as §1

NCI-H1651 = system: NCI-H1651
In short: as §1

NCI-H1915 = system: NCI-H1915
In short: as §1

201T = system: 201T
In short: as §1

BEN = system: BEN
In short: as §1

NCI-H596 = system: NCI-H596
In short: as §1

NCI-H441 = system: NCI-H441
In short: as §1

`Nc1ccn([C@@H]2O[C@H](CO)[C@@H](O)[C@@H]2O)c(=O)n1` [Cytarabine] + COc1cccc2cc(-c3nc([C@H]4CC[C@H](C(=O)O)CC4)n4ncnc(N)c34)[nH]c12 [OSI-027] (partner 0.5 µM) was tested, and the relative viability (PC-3 [JPC-3]; first compound 0.005 µM) was 0.607, the relative viability (PC-3 [JPC-3]; first compound 0.01581 µM) was 0.721 and the relative viability (PC-3 [JPC-3]; first compound 0.05 µM) was 0.727. For the same compound, the relative viability (PC-3 [JPC-3]; first compound 0.1581 µM) was 0.499, the relative viability (PC-3 [JPC-3]; first compound 0.5 µM) was 0.454 and the relative viability (CAL-12T; first compound 0.005 µM) was 0.697. The relative viability (CAL-12T; first compound 0.01581 µM) was 0.507, the relative viability (CAL-12T; first compound 0.05 µM) was 0.524 and the relative viability (CAL-12T; first compound 0.1581 µM) was 0.233. The relative viability (CAL-12T; first compound 0.5 µM) was 0.197, the relative viability (NCI-H2023; first compound 0.005 µM) was 0.212 and the relative viability (NCI-H2023; first compound 0.01581 µM) was 0.152. For the same compound, the relative viability (NCI-H2023; first compound 0.05 µM) was 0.107, the relative viability (NCI-H2023; first compound 0.1581 µM) was 0.104 and the relative viability (NCI-H2023; first compound 0.5 µM) was 0.102. For the same compound, the relative viability (NCI-H661; first compound 0.005 µM) was 0.559, the relative viability (NCI-H661; first compound 0.01581 µM) was 0.617 and the relative viability (NCI-H661; first compound 0.05 µM) was 0.545. It also gave a relative viability (NCI-H661; first compound 0.1581 µM) of 0.413, a relative viability (NCI-H661; first compound 0.5 µM) of 0.363 and a relative viability (NCI-H2087; first compound 0.005 µM) of 0.406. It also gave a relative viability (NCI-H2087; first compound 0.01581 µM) of 0.485, a relative viability (NCI-H2087; first compound 0.05 µM) of 0.416 and a relative viability (NCI-H2087; first compound 0.1581 µM) of 0.192. For the same compound, the relative viability (NCI-H2087; first compound 0.5 µM) was 0.121, the relative viability (NCI-H1944; first compound 0.005 µM) was 0.313 and the relative viability (NCI-H1944; first compound 0.01581 µM) was 0.239. It also gave a relative viability (NCI-H1944; first compound 0.05 µM) of 0.214, a relative viability (NCI-H1944; first compound 0.1581 µM) of 0.155 and a relative viability (NCI-H1944; first compound 0.5 µM) of 0.133. For the same compound, the relative viability (NCI-H650; first compound 0.005 µM) was 0.438, the relative viability (NCI-H650; first compound 0.01581 µM) was 0.424 and the relative viability (NCI-H650; first compound 0.05 µM) was 0.235. The relative viability (NCI-H650; first compound 0.1581 µM) was 0.194, the relative viability (NCI-H650; first compound 0.5 µM) was 0.206 and the relative viability (LCLC-97TM1; first compound 0.005 µM) was 0.45. It also gave a relative viability (LCLC-97TM1; first compound 0.01581 µM) of 0.37, a relative viability (LCLC-97TM1; first compound 0.05 µM) of 0.439 and a relative viability (LCLC-97TM1; first compound 0.1581 µM) of 0.191. The relative viability (LCLC-97TM1; first compound 0.5 µM) was 0.139, the relative viability (NCI-H1650; first compound 0.005 µM) was 0.44 and the relative viability (NCI-H1650; first compound 0.01581 µM) was 0.507. It also gave a relative viability (NCI-H1650; first compound 0.05 µM) of 0.354, a relative viability (NCI-H1650; first compound 0.1581 µM) of 0.311 and a relative viability (NCI-H1650; first compound 0.5 µM) of 0.259. For the same compound, the relative viability (NCI-H460; first compound 0.005 µM) was 0.384, the relative viability (NCI-H460; first compound 0.01581 µM) was 0.486 and the relative viability (NCI-H460; first compound 0.05 µM) was 0.301. The relative viability (NCI-H460; first compound 0.1581 µM) was 0.055, the relative viability (NCI-H460; first compound 0.5 µM) was 0.0359 and the relative viability (A-427; first compound 0.005 µM) was 0.4. For the same compound, the relative viability (A-427; first compound 0.01581 µM) was 0.259, the relative viability (A-427; first compound 0.05 µM) was 0.275 and the relative viability (A-427; first compound 0.1581 µM) was 0.16. For the same compound, the relative viability (A-427; first compound 0.5 µM) was 0.177, the relative viability (ABC-1; first compound 0.005 µM) was 0.41 and the relative viability (ABC-1; first compound 0.01581 µM) was 0.458. For the same compound, the relative viability (ABC-1; first compound 0.05 µM) was 0.463, the relative viability (ABC-1; first compound 0.1581 µM) was 0.379 and the relative viability (ABC-1; first compound 0.5 µM) was 0.259. It also gave a relative viability (NCI-H727; first compound 0.005 µM) of 0.589, a relative viability (NCI-H727; first compound 0.01581 µM) of 0.558 and a relative viability (NCI-H727; first compound 0.05 µM) of 0.491. For the same compound, the relative viability (NCI-H727; first compound 0.1581 µM) was 0.38, the relative viability (NCI-H727; first compound 0.5 µM) was 0.347 and the relative viability (LC-2-ad; first compound 0.005 µM) was 0.734. The relative viability (LC-2-ad; first compound 0.01581 µM) was 0.69, the relative viability (LC-2-ad; first compound 0.05 µM) was 0.539 and the relative viability (LC-2-ad; first compound 0.1581 µM) was 0.344. For the same compound, the relative viability (LC-2-ad; first compound 0.5 µM) was 0.318, the relative viability (H3255; first compound 0.005 µM) was 0.521 and the relative viability (H3255; first compound 0.01581 µM) was 0.579. The relative viability (H3255; first compound 0.05 µM) was 0.53, the relative viability (H3255; first compound 0.1581 µM) was 0.429 and the relative viability (H3255; first compound 0.5 µM) was 0.453. The relative viability (NCI-H520; first compound 0.005 µM) was 0.25, the relative viability (NCI-H520; first compound 0.01581 µM) was 0.262 and the relative viability (NCI-H520; first compound 0.05 µM) was 0.33. It also gave a relative viability (NCI-H520; first compound 0.1581 µM) of 0.212, a relative viability (NCI-H520; first compound 0.5 µM) of 0.16 and a relative viability (NCI-H1651; first compound 0.005 µM) of 0.792. The relative viability (NCI-H1651; first compound 0.01581 µM) was 0.675, the relative viability (NCI-H1651; first compound 0.05 µM) was 0.81 and the relative viability (NCI-H1651; first compound 0.1581 µM) was 0.442. The relative viability (NCI-H1651; first compound 0.5 µM) was 0.298, the relative viability (NCI-H1915; first compound 0.005 µM) was 0.657 and the relative viability (NCI-H1915; first compound 0.01581 µM) was 0.57. For the same compound, the relative viability (NCI-H1915; first compound 0.05 µM) was 0.554, the relative viability (NCI-H1915; first compound 0.1581 µM) was 0.372 and the relative viability (NCI-H1915; first compound 0.5 µM) was 0.338. The relative viability (201T; first compound 0.005 µM) was 0.711, the relative viability (201T; first compound 0.01581 µM) was 0.782 and the relative viability (201T; first compound 0.05 µM) was 0.562. The relative viability (201T; first compound 0.1581 µM) was 0.382, the relative viability (201T; first compound 0.5 µM) was 0.272 and the relative viability (BEN; first compound 0.005 µM) was 0.5. It also gave a relative viability (BEN; first compound 0.01581 µM) of 0.315, a relative viability (BEN; first compound 0.05 µM) of 0.309 and a relative viability (BEN; first compound 0.1581 µM) of 0.263. For the same compound, the relative viability (BEN; first compound 0.5 µM) was 0.217, the relative viability (NCI-H596; first compound 0.005 µM) was 0.682 and the relative viability (NCI-H596; first compound 0.01581 µM) was 0.702. The relative viability (NCI-H596; first compound 0.05 µM) was 0.592, the relative viability (NCI-H596; first compound 0.1581 µM) was 0.418 and the relative viability (NCI-H596; first compound 0.5 µM) was 0.317. It also gave a relative viability (NCI-H441; first compound 0.005 µM) of 0.629, a relative viability (NCI-H441; first compound 0.01581 µM) of 0.638 and a relative viability (NCI-H441; first compound 0.05 µM) of 0.617. The relative viability (NCI-H441; first compound 0.1581 µM) was 0.422 and the relative viability (NCI-H441; first compound 0.5 µM) was 0.291.
